Reference: patent publication US10618918B2, “Substituted boronic acids as antimicrobials” (priority 2015, dated 2020)

Assays:
KP1004 KPC-2 [1] = assay: Biapenem potentiation (MPC@1), strain KP1004 KPC-2; assay type: cell-based; details: minimum BLI concentration inhibiting growth with biapenem 1 μg/mL; tested up to 40 μg/mL
Method: (§1) Biapenem was present in the test medium at 1 μg/mL. […] Table 3 summarizes the BLI potency of biapenem potentiation (MPC@1) for two strains overexpressing class A (KPC) and class D (OXA-48) carbapenemases. Biapenem MIC for each strain is also shown.

KP1086 OXA-48 = assay: Biapenem potentiation (MPC@1), strain KP1086 OXA-48; assay type: cell-based; details: minimum BLI concentration inhibiting growth with biapenem 1 μg/mL; tested up to 40 μg/mL
Method: as §1

AB1053 OXA-72 = assay: Meropenem potentiation (MPC@8), strain AB1053 OXA-72; assay type: cell-based, Acinetobacter baumannii; details: minimum BLI concentration inhibiting growth with meropenem 8 μg/mL; tested up to 20 μg/mL
AB1054 OXA-23 = assay: Meropenem potentiation (MPC@8), strain AB1054 OXA-23; assay type: cell-based, Acinetobacter baumannii; details: minimum BLI concentration inhibiting growth with meropenem 8 μg/mL; tested up to 20 μg/mL
[2] = target: T1, purified class A, C and D enzymes (β-lactamases) (Acinetobacter baumannii, UniProt Q9L4P2); assay: biochemical; assay type: biochemical; details: purified OXA-23; nitrocefin (NCF) as reporter substrate
T1 construct: rows headed: Ki (OXA-23, NCF), uM; other: purified OXA-23; nitrocefin (NCF) as reporter substrate
T1 sequence (Q9L4P2 whole entry): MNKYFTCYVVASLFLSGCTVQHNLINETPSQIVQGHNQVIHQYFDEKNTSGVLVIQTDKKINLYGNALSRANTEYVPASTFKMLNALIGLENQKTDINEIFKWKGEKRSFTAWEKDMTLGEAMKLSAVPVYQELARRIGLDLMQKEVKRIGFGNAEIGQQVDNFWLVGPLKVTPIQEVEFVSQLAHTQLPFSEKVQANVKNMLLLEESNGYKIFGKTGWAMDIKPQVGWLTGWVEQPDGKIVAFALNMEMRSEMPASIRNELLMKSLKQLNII

[3] = target: purified class A, C and D enzymes (β-lactamases) (Enterobacter cloacae, UniProt P05364); assay: biochemical; assay type: biochemical
purified class A, C and D enzymes (β-lactamases) (Enterobacter cloacae, UniProt P05364), sequence (P05364 21-381): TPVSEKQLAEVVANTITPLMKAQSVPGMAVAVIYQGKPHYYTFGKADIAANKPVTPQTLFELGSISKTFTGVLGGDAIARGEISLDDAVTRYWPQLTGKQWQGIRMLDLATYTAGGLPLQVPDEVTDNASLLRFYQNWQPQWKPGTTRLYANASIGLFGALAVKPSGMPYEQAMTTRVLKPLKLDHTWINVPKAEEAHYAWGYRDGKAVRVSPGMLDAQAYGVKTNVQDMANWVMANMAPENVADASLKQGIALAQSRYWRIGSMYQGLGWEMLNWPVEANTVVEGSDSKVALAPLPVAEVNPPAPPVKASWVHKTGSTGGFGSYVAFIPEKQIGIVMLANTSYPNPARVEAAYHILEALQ

[4] = target: purified class A, C and D enzymes (β-lactamases) (Escherichia coli, UniProt Q9L5C7); assay: biochemical; assay type: biochemical; details: purified CTX-M-14; nitrocefin (NCF) as reporter substrate
purified class A, C and D enzymes (β-lactamases) (Escherichia coli, UniProt Q9L5C7), sequence (Q9L5C7 entry or part of it): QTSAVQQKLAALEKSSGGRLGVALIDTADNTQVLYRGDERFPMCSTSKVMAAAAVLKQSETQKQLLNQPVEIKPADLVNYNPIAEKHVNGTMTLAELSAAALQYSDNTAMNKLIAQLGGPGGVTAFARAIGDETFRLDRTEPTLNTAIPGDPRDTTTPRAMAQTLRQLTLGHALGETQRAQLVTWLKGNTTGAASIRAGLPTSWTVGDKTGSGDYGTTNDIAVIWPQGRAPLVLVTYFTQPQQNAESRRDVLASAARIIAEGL

[5] = target: purified class A, C and D enzymes (β-lactamases) (Klebsiella pneumoniae, UniProt Q6XEC0); assay: biochemical; assay type: biochemical; details: purified OXA-48; nitrocefin (NCF) as reporter substrate
[6] = target: purified class A, C and D enzymes (β-lactamases) (Klebsiella pneumoniae, UniProt Q9F663); assay: biochemical; assay type: biochemical; details: purified KPC-2; nitrocefin (NCF) as reporter substrate
[7] = target: T2, purified class A, C and D enzymes (β-lactamases) (Pseudomonas aeruginosa, UniProt P24735); assay: biochemical; assay type: biochemical
T2 construct: rows headed: Ki (Pa-AmpC, NCF), uM; other: purified Pa-AmpC; nitrocefin (NCF) as reporter substrate
T2 sequence (P24735 whole entry): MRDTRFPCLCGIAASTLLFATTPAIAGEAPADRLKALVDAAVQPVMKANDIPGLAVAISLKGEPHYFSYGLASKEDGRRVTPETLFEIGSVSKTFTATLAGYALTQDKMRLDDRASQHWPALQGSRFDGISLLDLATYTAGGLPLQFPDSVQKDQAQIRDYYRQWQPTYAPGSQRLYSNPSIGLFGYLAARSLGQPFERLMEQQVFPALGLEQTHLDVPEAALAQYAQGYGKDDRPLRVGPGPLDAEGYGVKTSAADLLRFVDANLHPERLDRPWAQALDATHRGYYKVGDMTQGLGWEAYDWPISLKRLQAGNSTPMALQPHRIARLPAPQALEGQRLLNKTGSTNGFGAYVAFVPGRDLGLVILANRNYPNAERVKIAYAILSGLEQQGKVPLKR

ECL1002 = assay: Aztreonam potentiation (MPC@4), strain ECL1002; details: minimum BLI concentration inhibiting growth with aztreonam 4 μg/mL; tested up to 40 μg/mL
ec308 SHV-5 = assay: Aztreonam potentiation (MPC@4), strain ec308 SHV-5; details: minimum BLI concentration inhibiting growth with aztreonam 4 μg/mL; tested up to 40 μg/mL
ec302 TEM-10 = assay: Aztreonam potentiation (MPC@4), strain ec302 TEM-10; details: minimum BLI concentration inhibiting growth with aztreonam 4 μg/mL; tested up to 40 μg/mL
KP1004 KPC-2 [8] = assay: Aztreonam potentiation (MPC@4), strain KP1004 KPC-2; details: minimum BLI concentration inhibiting growth with aztreonam 4 μg/mL; tested up to 40 μg/mL
EC1010 CMY-6 = assay: Aztreonam potentiation (MPC@4), strain EC1010 CMY-6; details: minimum BLI concentration inhibiting growth with aztreonam 4 μg/mL; tested up to 40 μg/mL
KP1010 SHV-12 = assay: Aztreonam potentiation (MPC@4), strain KP1010 SHV-12; details: minimum BLI concentration inhibiting growth with aztreonam 4 μg/mL; tested up to 40 μg/mL
KP1009 CTX-M-15 = assay: Aztreonam potentiation (MPC@4), strain KP1009 CTX-M-15; details: minimum BLI concentration inhibiting growth with aztreonam 4 μg/mL; tested up to 40 μg/mL
KP1005 CTX-M-14 = assay: Tigemonam potentiation (MPC@4), strain KP1005 CTX-M-14; details: minimum BLI concentration inhibiting growth with tigemonam 4 μg/mL; tested up to 40 μg/mL

Row | Structure (SMILES) | BPM MPC1 KP1004 KPC-2 (KP1004 KPC-2 [1]) | BPM MPC1 OXA-48 KP1086 (KP1086 OXA-48) | MPM MPC8 AB1053 OXA-72 (AB1053 OXA-72) | MPM MPC8 AB1054 OXA-23 (AB1054 OXA-23) | Ki [2] [nM] | Ki (P99, NCF), uM [3] | Ki (CTX-M-14, NCF), uM [4] | Ki (OXA-48, NCF), uM [5] | Ki (KPC-2, NCF), uM [6] | Ki [7] [nM] | AZT MPC4 ECL1002 (ECL1002) | AZT MPC4 SHV-5 ec308 (ec308 SHV-5) | AZT MPC4 TEM-10 ec302 (ec302 TEM-10) | AZT MPC4 KPC-2 KP1004 (KP1004 KPC-2 [8]) | AZT MPC4 CMY-6 EC1010 (EC1010 CMY-6) | AZT MPC4 SHV-12 KP1010 (KP1010 SHV-12) | AZT MPC4 CTX-M-15 KP1009 (KP1009 CTX-M-15) | TIG MPC4 CTX-M-14 KP1005 (KP1005 CTX-M-14)
1 | CS(=O)(=O)Nc1ccc2c(c1C(=O)[O-])O[B-](O)(O)CC2.[Na+].[Na+] [Compound 51, Disodium; 4,4-dihydroxy-8-(methanesulfonamido)-5-oxa-4-boranuidabicyclo[4.4.0]deca-1(6),7,9-triene-7-carboxylate] | X (X = MPC@1 ≤ 5 μg/mL) | X (X = MPC@1 ≤ 5 μg/mL) | Z (Z = MPC@1 > 20 μg/mL) | Z (Z = MPC@1 > 20 μg/mL) | < 100 | X (key: X = Ki ≤ 0.1 μM; Y = 0.1 μM < Ki ≤ 1 μM; Z = Ki > 1 μM) | X (X = Ki ≤ 0.1 μM) | X (X = Ki ≤ 0.1 μM) | X (X = Ki ≤ 0.1 μM) | < 100 | Z (Z = MPC@4 > 20 μg/mL) | X (X = MPC@4 ≤ 5 μg/mL) | X (X = MPC@4 ≤ 5 μg/mL) | Y (Y = 5 μg/mL < MPC@4 ≤ 20 μg/mL) | Y (Y = 5 μg/mL < MPC@4 ≤ 20 μg/mL) | X (X = MPC@4 ≤ 5 μg/mL) | Y (Y = 5 μg/mL < MPC@4 ≤ 20 μg/mL) | Z (Z = MPC@4 > 20 μg/mL)
2 | O=C([O-])c1c(OCCN2CCOCC2)ccc2c1O[B-](O)(O)CC2.[Na+].[Na+] [Compound 27, Disodium; 4,4-dihydroxy-8-(2-morpholinoethoxy)-5-oxa-4-boranuidabicyclo[4.4.0]deca-1(6),7,9-triene-7-carboxylate] | X (X = MPC@1 ≤ 5 μg/mL) | Y (Y = 5 μg/mL < MPC@1 ≤ 20 μg/mL) | Y (Y = 5 μg/mL < MPC@1 ≤ 20 μg/mL) | Y (Y = 5 μg/mL < MPC@1 ≤ 20 μg/mL) | < 100 | X (key: X = Ki ≤ 0.1 μM; Y = 0.1 μM < Ki ≤ 1 μM; Z = Ki > 1 μM) | X (X = Ki ≤ 0.1 μM) | X (X = Ki ≤ 0.1 μM) | X (X = Ki ≤ 0.1 μM) | 100 to 1000 | X (X = MPC@4 ≤ 5 μg/mL) | Y (Y = 5 μg/mL < MPC@4 ≤ 20 μg/mL) | Y (Y = 5 μg/mL < MPC@4 ≤ 20 μg/mL) | X (X = MPC@4 ≤ 5 μg/mL) | X (X = MPC@4 ≤ 5 μg/mL) | X (X = MPC@4 ≤ 5 μg/mL) | Y (Y = 5 μg/mL < MPC@4 ≤ 20 μg/mL) | Z (Z = MPC@4 > 20 μg/mL)
3 | NCCc1cn(-c2ccc3c(c2C(=O)O)O[B-](O)(O)CC3)nn1 [Compound 14, Disodium; 8-[4-(2-aminoethyl)triazol-1-yl]-4,4-dihydroxy-5-oxa-4-boranuidabicyclo[4.4.0]deca-1(6),7,9-triene-7-carboxylate] | X (X = MPC@1 ≤ 5 μg/mL) | X (X = MPC@1 ≤ 5 μg/mL) | X (X = MPC@1 ≤ 5 μg/mL) | X (X = MPC@1 ≤ 5 μg/mL) | < 100 | Y (key: X = Ki ≤ 0.1 μM; Y = 0.1 μM < Ki ≤ 1 μM; Z = Ki > 1 μM) | X (X = Ki ≤ 0.1 μM) | X (X = Ki ≤ 0.1 μM) | X (X = Ki ≤ 0.1 μM) | > 1000 | Z (Z = MPC@4 > 20 μg/mL) | Y (Y = 5 μg/mL < MPC@4 ≤ 20 μg/mL) | Y (Y = 5 μg/mL < MPC@4 ≤ 20 μg/mL) | X (X = MPC@4 ≤ 5 μg/mL) | Y (Y = 5 μg/mL < MPC@4 ≤ 20 μg/mL) | X (X = MPC@4 ≤ 5 μg/mL) | Y (Y = 5 μg/mL < MPC@4 ≤ 20 μg/mL) | Z (Z = MPC@4 > 20 μg/mL)
4 | O=C([O-])c1c(OCCF)ccc2c1O[B-](O)(O)CC2.[Na+].[Na+] [Compound 43, Disodium; 8-(2-fluoroethoxy)-4,4-dihydroxy-5-oxa-4-boranuidabicyclo[4.4.0]deca-1(6),7,9-triene-7-carboxylate] | X (X = MPC@1 ≤ 5 μg/mL) | X (X = MPC@1 ≤ 5 μg/mL) | X (X = MPC@1 ≤ 5 μg/mL) | X (X = MPC@1 ≤ 5 μg/mL) | < 100 | X (key: X = Ki ≤ 0.1 μM; Y = 0.1 μM < Ki ≤ 1 μM; Z = Ki > 1 μM) | X (X = Ki ≤ 0.1 μM) | X (X = Ki ≤ 0.1 μM) | X (X = Ki ≤ 0.1 μM) | < 100 | X (X = MPC@4 ≤ 5 μg/mL) | X (X = MPC@4 ≤ 5 μg/mL) | X (X = MPC@4 ≤ 5 μg/mL) | X (X = MPC@4 ≤ 5 μg/mL) | X (X = MPC@4 ≤ 5 μg/mL) | X (X = MPC@4 ≤ 5 μg/mL) | X (X = MPC@4 ≤ 5 μg/mL) | X (X = MPC@4 ≤ 5 μg/mL)
5 | COc1ccc2c(c1C(=O)[O-])O[B-](O)(O)[C@@H](CCO)C2.[Na+].[Na+] [Compound 12, Disodium; (3R)-4,4-dihydroxy-3-(2-hydroxyethyl)-8-methoxy-5-oxa-4-boranuidabicyclo[4.4.0]deca-1(6),7,9-triene-7-carboxylate] | X (X = MPC@1 ≤ 5 μg/mL) | Y (Y = 5 μg/mL < MPC@1 ≤ 20 μg/mL) | Y (Y = 5 μg/mL < MPC@1 ≤ 20 μg/mL) | Y (Y = 5 μg/mL < MPC@1 ≤ 20 μg/mL) | 100 to 1000 | X (key: X = Ki ≤ 0.1 μM; Y = 0.1 μM < Ki ≤ 1 μM; Z = Ki > 1 μM) | X (X = Ki ≤ 0.1 μM) | X (X = Ki ≤ 0.1 μM) | X (X = Ki ≤ 0.1 μM) | 100 to 1000 | Y (Y = 5 μg/mL < MPC@4 ≤ 20 μg/mL) | Y (Y = 5 μg/mL < MPC@4 ≤ 20 μg/mL) | Z (Z = MPC@4 > 20 μg/mL) | Y (Y = 5 μg/mL < MPC@4 ≤ 20 μg/mL) | Y (Y = 5 μg/mL < MPC@4 ≤ 20 μg/mL) | Y (Y = 5 μg/mL < MPC@4 ≤ 20 μg/mL) | Y (Y = 5 μg/mL < MPC@4 ≤ 20 μg/mL) | Z (Z = MPC@4 > 20 μg/mL)
6 | O=C(O)c1c(-n2ccnn2)ccc2c1O[B-](O)(O)CC2 [Compound 13, Disodium; 4,4-dihydroxy-8-(triazol-1-yl)-5-oxa-4-boranuidabicyclo[4.4.0]deca-1(6),7,9-triene-7-carboxylate] | X (X = MPC@1 ≤ 5 μg/mL) | X (X = MPC@1 ≤ 5 μg/mL) | X (X = MPC@1 ≤ 5 μg/mL) | X (X = MPC@1 ≤ 5 μg/mL) | < 100 | X (key: X = Ki ≤ 0.1 μM; Y = 0.1 μM < Ki ≤ 1 μM; Z = Ki > 1 μM) | X (X = Ki ≤ 0.1 μM) | X (X = Ki ≤ 0.1 μM) | X (X = Ki ≤ 0.1 μM) | < 100 | X (X = MPC@4 ≤ 5 μg/mL) | X (X = MPC@4 ≤ 5 μg/mL) | X (X = MPC@4 ≤ 5 μg/mL) | X (X = MPC@4 ≤ 5 μg/mL) | X (X = MPC@4 ≤ 5 μg/mL) | X (X = MPC@4 ≤ 5 μg/mL) | X (X = MPC@4 ≤ 5 μg/mL) | X (X = MPC@4 ≤ 5 μg/mL)
